Assay results reported in patent US20260256738A1, “METHODS OF TREATING CANCER WITH A RAS MUTATION” (Immuneering Corporation, priority 2023, published 2026).

Columns and labels:
[1] = Preclinical xenograft tumor models, summary (tolerability, effective dose); type: in vivo, mice; conditions: at top doses
pERK in A549 (KRAS-G12S) = experiment: Cell-based pERK dose response / phospho-ERK screen in A549; parameters: species or system Human; conditions: for pERK: total ERK (% relative to vehicle): A549 (KRAS G12S), 10 μM for 2 hours
Protocol: Materials and Methods: A549 or A375 cells were seeded in 6-well plates at an appropriate seeding density on day 0. On day 2 or 3, after checking the health and confluency of cells, the media was aspirated and replaced with 1 mL media containing a predetermined concentration of compound and incubated for 2 hours. After 2 hours, the media was aspirated, and the cells washed 2 times with cold PBS. Cells were lysed on ice, with 50 μL 1× CST lysis buffer+1 mM PMSF for 5 minutes. After 5 minutes, cells were removed using a scraper and transferred to cold 1.5 mL tubes, and centrifuged for 10 min, 4° C., 14,000×g. Supernatant was gently removed and snap frozen in liquid nitrogen. Protein concentration of the lysate was determined using Bradford Reagent (analyzed using SpectraMax M2E) and diluted to 1 mg/mL or pERK or 1.5 mg/mL for pMEK analysis. […] All dilutions were in Milk-free antibody diluent.

CYP450 2C8 = target: T1, CYP450 2C8 (Homo sapiens, UniProt P10632); experiment: CYP450 Panel; type: in vitro ADME; conditions: 10 μM; substrate amodiaquine
T1 sequence (P10632 1-490): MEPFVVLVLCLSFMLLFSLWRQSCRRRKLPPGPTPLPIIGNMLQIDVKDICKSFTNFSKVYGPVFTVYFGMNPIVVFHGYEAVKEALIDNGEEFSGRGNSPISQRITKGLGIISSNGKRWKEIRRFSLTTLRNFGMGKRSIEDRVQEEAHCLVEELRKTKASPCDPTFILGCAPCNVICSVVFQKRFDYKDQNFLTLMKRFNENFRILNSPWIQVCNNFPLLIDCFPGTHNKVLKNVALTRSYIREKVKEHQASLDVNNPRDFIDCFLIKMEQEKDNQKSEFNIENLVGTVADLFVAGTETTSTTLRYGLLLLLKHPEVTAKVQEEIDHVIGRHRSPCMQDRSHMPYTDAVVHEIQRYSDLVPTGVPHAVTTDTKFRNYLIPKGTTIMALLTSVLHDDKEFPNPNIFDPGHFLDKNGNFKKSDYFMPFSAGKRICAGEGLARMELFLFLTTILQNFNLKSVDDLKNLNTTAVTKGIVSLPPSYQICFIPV

[2] = Metabolite ID study in hepatocytes; type: in vitro ADME; conditions: 10 μM compound 9, T=60 min
Protocol: Cryopreserved hepatocytes from a selected species were thawed and incubated in duplicate with 10 μM compound 9 in Krebs-Henseleit buffer. […] Viability of hepatocytes was >70% after thawing.
(Eppendorf 5804R). […] The disappearance of the parent compound was determined, and the formation of metabolites was evaluated. Metabolites present at >1% of total compound related material (based on peak area) were identified by interpretation of the LC-MS/MS data.
MS settings were optimized for the flow rate. Full scan spectra were acquired in combination with data dependent MS2.
The formation and identification of metabolites was evaluated according to the following approach:
The spectra obtained from all samples were screened for the presence of m/z values that are absent in the blank incubations (incubations with hepatocytes without compound and with vehicle control, and incubations of compound in buffer without hepatocytes). T=60 min incubations were used as an initial screening. All possible metabolites observed were semi-quantified by MS response (peak area). MS2 spectra were interpreted to determine possible location of the metabolism reaction. The presence of metabolites identified was compared across the selected species.

pERK = experiment: Phase 1/2a clinical trial: PD, A549 cells exposed to patient plasma, p/t-ERK; type: cell-based, human
Protocol: PK plasma: pre-dose (0), 0.5, 1, 1.5, 2*, 4, 6, 8, 24 hours; PD plasma: PK-matched without 0.5 or 1.5 hours (*poor sample quality for Pt.4 at 2 hour)
PD method: A549 (KRASG12S) cells were exposed to patient plasma for 2-hours before quantifying phosphorylated and total ERK and MEK

[3] = eLogD (lipophilicity; pH=7.4); type: physicochemical
Protocol: Test compounds were dissolved in DMSO at a concentration of 10 mM and further diluted with methanol:water 1:1. Samples were analyzed using gradient HPLC with three different isocratic mobile phases of 0.25% octanol in methanol (60, 65 and 70%) and 20 mM MOPS buffer (pH 7.4) with decylamine. If needed, (for low E log Doct compounds) the isocratic mobile phases were adjusted to e.g. 40, 45 and 50% methanol. Peaks were detected using a diode array at absorbance 220-320 nm.
Capacity factors data (k′_(tr−_t0)/t0) obtained at various amounts of methanol were extrapolated to 0% methanol and k′w values are determined using a linear procedure. E log Doct (7.4) is calculated using a series of reference standards with known Log D values. Each experiment was performed in triplicate.

CYP450 1A2 = target: T2, CYP450 1A2 (Homo sapiens, UniProt P05177); experiment: CYP450 Panel; conditions: 10 μM; substrate phenacetin; in % (unit assumed)
T2 sequence (P05177 1-516): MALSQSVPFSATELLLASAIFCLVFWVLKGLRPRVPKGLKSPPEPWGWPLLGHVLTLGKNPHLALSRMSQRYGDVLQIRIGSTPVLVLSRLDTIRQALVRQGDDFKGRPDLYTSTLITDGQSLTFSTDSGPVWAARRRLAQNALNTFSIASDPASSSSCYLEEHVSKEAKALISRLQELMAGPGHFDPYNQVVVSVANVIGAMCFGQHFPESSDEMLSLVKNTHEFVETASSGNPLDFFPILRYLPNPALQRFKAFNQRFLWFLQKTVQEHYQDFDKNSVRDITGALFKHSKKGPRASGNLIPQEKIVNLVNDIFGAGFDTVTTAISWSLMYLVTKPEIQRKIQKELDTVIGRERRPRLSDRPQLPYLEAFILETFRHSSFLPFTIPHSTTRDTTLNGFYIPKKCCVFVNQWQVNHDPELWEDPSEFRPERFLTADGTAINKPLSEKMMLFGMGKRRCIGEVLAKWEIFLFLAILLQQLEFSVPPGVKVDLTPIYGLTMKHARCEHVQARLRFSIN

[4] = tested on: pERK in SK-MEL-28 BRAF^V600E; experiment: IC50 for pERK in 2D grown cell lines (Table 3); type: cell-based; conditions: SK-MEL-28 BRAF^V600E human malignant melanoma
[5] = Microsome Stability (% remaining @1 hour); conditions: CD-1 Mouse; 2 μM

Compound	median body weight loss [1]	IC50 (pERK in A549 (KRAS-G12S); Homo sapiens, A549, 2 hr incubation, read-out: pERK IC50 (A549) [12-point dose]) [nM]	CYP450 Panel 2C8 (CYP450 2C8) [%]	% of total compound related material based on peak area ([2]; Dog hepatocytes) [%]	% of total compound related material based on peak area ([2]; Human hepatocytes) [%]	% of total compound related material based on peak area ([2]; Monkey hepatocytes) [%]	% of total compound related material based on peak area ([2]; Mouse hepatocytes) [%]	% of total compound related material based on peak area ([2]; Rabbit hepatocytes) [%]	% of total compound related material based on peak area ([2]; Rat hepatocytes) [%]	pharmacodynamic inhibition of pERK (pERK; initial phase 1/2a clinical data)	reduction p/t-ERK (pERK; patients 3 and 4, 160 mg QD po, C1D1)	chromatographic logD [3]	eLogD (lipophilicity; pH = 7.4) [3]	CYP450 Panel 1A2 (CYP450 1A2)	IC50 [4] [nM]	Microsome stability, % Remaining @1 hour [5] [%]	pERK: total ERK (% relative to vehicle) (pERK in A549 (KRAS-G12S); Table 8A) [%]	pERK: total ERK (% relative to vehicle) (pERK in A549 (KRAS-G12S); Table 8B) [%]
CNS(=O)(=O)Nc1cccc(Cc2c(CN(C)C)c3ccc(OC(=O)N(C)C)cc3oc2=O)c1F [Compound A, 4-((dimethylamino)methyl)-3-(2-fluoro-3-((N-methylsulfamoyl)amino)benzyl)-2-oxo-2H-chromen-7-yl dimethylcarbamate]	3-6 % of baseline	19.8	4	96	99	95	97	93	95	~ 90%	87-92%	3	3.0	4.8	29.9	54.3	–	–
Cn1cnc2c(F)c(Nc3ccc(Br)cc3Cl)c(C(=O)NOCCO)cc21 [Reference 1, Selumetinib]	–	–	18.9	–	–	–	–	–	–	–	–	–	3.6	8.3	–	13.9	0.48	2.40
